Structures can show the parent of a compound that is named as a salt.

The first assay deals with T1, human PAR2 receptor (Homo sapiens, UniProt P55085).
T1 construct: expressed in transfected cells; host or cells: 1321N1 cells
T1 sequence (P55085 26-397): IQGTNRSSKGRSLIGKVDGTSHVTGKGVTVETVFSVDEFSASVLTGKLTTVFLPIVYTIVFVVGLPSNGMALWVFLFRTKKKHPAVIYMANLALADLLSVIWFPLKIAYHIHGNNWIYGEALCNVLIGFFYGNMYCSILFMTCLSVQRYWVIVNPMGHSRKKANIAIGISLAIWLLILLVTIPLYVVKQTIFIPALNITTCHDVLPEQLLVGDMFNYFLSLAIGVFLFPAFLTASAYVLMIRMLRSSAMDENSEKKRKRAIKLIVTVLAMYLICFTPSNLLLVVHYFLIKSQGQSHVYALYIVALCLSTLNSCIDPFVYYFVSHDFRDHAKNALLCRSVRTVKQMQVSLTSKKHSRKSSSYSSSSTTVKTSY
Put plainly: PAR2 antagonist activity, calcium flux FLIPR assay (trypsin challenge). The class given is cell-based.
Conditions: not given
As for the experimental part: The PAR2 receptor couples through the Gq signaling pathway and results in activation of calcium mobilization. The functional activity of test compounds was routinely tested by measuring the ability of compounds to antagonize PAR2 (trypsin challenge) activity in a dose dependent manner, in 1321N1 cells transfected with the human PAR2 receptor, using a calcium flux Fluorescent Imaging Plate Reader FLIPR assay.
Briefly, test compounds were dissolved in DMSO to a concentration of 20 mM and stored in matrix screenmate racks. […] The compounds were then transferred to 384-well assay plates ready for use. […] The assay buffer used was HBSS buffer supplemented with 20 mM HEPES and 0.1% BSA (protease free), pH7.4. The loading/wash buffers were the same as the assay buffer.
Sub-cultivations were performed every 2-3 d. […] After washing, the cells were loaded with Fluo-4 AM dye (Molecular probes) at 2 μM containing 0.48 μg/mL pluronic acid for 60 min at 37° C. under 5% CO2.
A combined agonist/antagonist protocol was used to measure changes in intracellular calcium concentration. Compound (antagonist) was added to the cell plate using a Fluorometric Imaging Plate Reader (FLIPR) (Molecular Devices, Sunnyvale, Calif., USA). Basal fluorescence was recorded every second for 10 seconds prior to compound addition (10 μl) and fluorescence recorded every second for 1 min then every 6 seconds for a further 1 min. Trypsin (EC50 concentration) was then added using the FLIPR and fluorescence recorded as described above. Curve-fitting and parameter estimation were carried out using GraphPad Prism 4.0 (GraphPad Software Inc., San Diego, Calif.).
Background: Calcium flux is commonly read through the fluorescence of an indicator in the cells.
Regarding `NCc1ccc(CNC(=O)N2CCC(Nc3ccccc3Cl)CC2)cc1` [Example 17, N-{[4-(Aminomethyl)phen-yl]methyl}-4-[(2-chlorophenyl)amino]piper-idine-1-carboxamide dihydrochloride], the IC50 (in general, the concentration at which inhibition is half-maximal) was below 5 µM.

Still in this assay, the particulars now being: 1321N1 cells transfected with the human PAR2 receptor; trypsin (EC50 concentration) challenge; calcium flux FLIPR; read-out: PAR2 IC50.
Consider `NCc1ccc(CNC(=O)N2CCC(Cc3ccccc3)CC2)cc1` [Example 1, (4-{[(4-Benzylpiperidin-1-yl)carbonylamino]methyl}phenyl)methanaminium chloride], for which the IC50 was 5 to 20 µM.

Turning to `COc1cccc(CC2CCN(C(=O)NCc3ccc(CN)cc3)CC2)c1` [Example 2, 2,2,2-Trifluoroacetic acid; N-{[4-(aminomethyl)phenyl]methyl}-4-[(3-methoxyphenyl)methyl] piperidine-1-carboxamide], the IC50 was 20 to 50 µM.

For the molecule `COc1ccc(CC2CCN(C(=O)NCc3ccc(CN)cc3)CC2)cc1` [Example 3, 2,2,2-Trifluoroacetic acid; N-{[4-(aminomethyl)phenyl]methyl}-4-[(4-methoxyphenyl)methyl] piperidine-1-carboxamide], the IC50 is below 5 µM.

Take `NCc1ccc(CNC(=O)N2CCC(Cc3cccc(F)c3)CC2)cc1` [Example 4, 2,2,2-Trifluoroacetic acid; N-{[4-(aminomethyl)phenyl]methyl}-4-[(3-fluorophenyl)methyl] piperidine-1-carboxamide]: the IC50 is below 5 µM.

As to `NCc1ccc(CNC(=O)N2CCC(Cc3ccc(F)cc3)CC2)cc1` [Example 5, N-{[4-(Aminomethyl)phen-yl]methyl}-4-[(4-fluorophenyl)methyl]piper-idine-1-carboxamide hydrochloride], the IC50 was below 5 µM.

Regarding `NCc1ccc(CNC(=O)N2CCC(Cc3ccc(Cl)cc3)CC2)cc1` [Example 6, 2,2,2-Trifluoroacetic acid; N-{[4-(aminomethyl)phenyl]methyl}-4-[(4-chlorophenyl)methyl] piperidine-1-carboxamide], the IC50 was below 5 µM.

In the case of `Cc1ccc(CC2CCN(C(=O)NCc3ccc(CN)cc3)CC2)cc1` [Example 7, 2,2,2-Trifluoroacetic acid; N-{[4-(aminomethyl)phenyl]methyl}-4-[(4-methylphenyl)methyl] piperidine-1-carboxamide], the IC50 is 5 to 20 µM.

With `NCc1ccc(CNC(=O)N2CCC(Cc3ccccn3)CC2)cc1` [Example 8, N-{[4-(Aminomethyl)phen-yl]methyl}-4-(pyridin-2-ylmethyl)piperidine-1-carboxamide], the IC50 lay within 5 to 20 µM.

On to `NCc1ccc(CNC(=O)N2CCC(Cc3cccnc3)CC2)cc1` [Example 9, N-{[4-(Aminomethyl)phen-yl]methyl}-4-(pyridin-3-ylmethyl)piperidine-1-carboxamide], for which the IC50 is 20 to 50 µM.

On to `NCc1ccc(CNC(=O)N2CCC(Cc3ccncc3)CC2)cc1` [Example 10, N-{[4-(Aminomethyl)phen-yl]methyl}-4-(pyridin-4-ylmethyl)piperidine-1-carboxamide], for which the IC50 was in the range of 5 to 20 µM.

On to `NCc1ccc(CNC(=O)N2CCC(Oc3ccccc3)CC2)cc1` [Example 11, N-{[4-(Aminomethyl)phen-yl]methyl}-4-phenoxypiperidine-1-carboxamide], for which the IC50 lay in the range of 20 to 50 µM.

As to `NCc1ccc(CNC(=O)N2CCC(Oc3ccc(F)cc3)CC2)cc1` [Example 12, N-{[4-(Aminomethyl)phen-yl]methyl}-4-(4-fluorophenoxy)piperidine-1-carboxamide], the IC50 was 5 to 20 µM.

For the molecule `NCc1ccc(CNC(=O)N2CCC(Oc3ccccc3Cl)CC2)cc1` [Example 13, N-{[4-(Aminomethyl)phen-yl]methyl}-4-(2-chlorophenoxy)piperidine-1-carboxamide hydrochloride], the IC50 was in the range of 20 to 50 µM.

For the molecule `NCc1ccc(CNC(=O)N2CCC(Oc3cccc(Cl)c3)CC2)cc1` [Example 14, N-{[4-(Aminomethyl)phen-yl]methyl}-4-(3-chlorophenoxy)piperidine-1-carboxamide hydrochloride], the IC50 was 20 to 50 µM.

Regarding `NCc1ccc(CNC(=O)N2CCC(Oc3ccc(Cl)cc3)CC2)cc1` [Example 15, N-{[4-(Aminomethyl)phen-yl]methyl}-4-(4-chlorophenoxy)piperidine-1-carboxamide hydrochloride], the IC50 lay in the range of 20 to 50 µM.

On to `NCc1ccc(CNC(=O)N2CCC(Sc3ccccc3)CC2)cc1` [Example 16, N-{[4-(Aminomethyl)phen-yl]methyl}-4-(phenylsulfanyl)piperidine-1-carboxamide hydrochloride], for which the IC50 was 5 to 20 µM.

As for `NCc1ccc(CNC(=O)N2CCC(C(=O)c3ccc(F)cc3)CC2)cc1` [Example 18, 2,2,2-Trifluoroacetic acid;- N-{[4-(aminomethyl)phenyl]methyl}-4-[(4-fluorophenyl)carbonyl] piperidine-1-carboxamide], the IC50 is 5 to 20 µM.

On to `NCc1ccc(CNC(=O)N2CCC(C(O)c3ccc(F)cc3)CC2)cc1` (centres unmarked) [Example 19, N-{[4-(Aminomethyl)phen-yl]methyl}-4-[(4-fluorophenyl)(hydroxy)meth-yl] piperidine-1-carboxamide], for which the IC50 was in the range of 5 to 20 µM.

On to `NCc1ccc(CNC(=O)N2CCC(c3ccccc3)CC2)cc1` [Example 20, N-{[4-(Aminomethyl)phen-yl]methyl}-4-phenylpiperidine-1-carboxamide hydrochloride], for which the IC50 lay within 20 to 50 µM.

In the case of `NCc1ccc(CNC(=O)N2CCCC(Cc3ccccc3)C2)cc1` (centres unmarked) [Example 21, 2,2,2-Trifluoroacetic acid; N-{[4-(aminomethyl)phenyl]methyl}-3-benzylpiperidine-1-carboxamide], the IC50 was in the range of 50 to 100 µM.

In the case of `NCc1ccc(CNC(=O)N2CCC(CCc3ccccc3)CC2)cc1` [Example 22, N-{[4-(Aminomethyl)phen-yl]methyl}-4-(2-phenylethyl)piperidine-1-carboxamide], the IC50 lay in the range of 20 to 50 µM.

Turning to `NCc1ccc(CNC(=O)C2CCN(Cc3cccc(F)c3)CC2)cc1` [Example 23, N-{[4-(Aminomethyl)phen-yl]methyl}-1-[(3-fluorophenyl)methyl]piper-idine-4-carboxamide], the IC50 lay within 5 to 20 µM.

Take `NCc1ccc(CNC(=O)N2CCN(Cc3ccccc3)CC2)cc1` [Example 24, N-{[4-(Aminomethyl)phen-yl]methyl}-4-benzylpiperazine-1-carboxamide]: the half-inhibitory concentration (IC50) lay in the range of 5 to 20 µM.

For the molecule `NCc1ccc(CNC(=O)N2CCN(Cc3ccccc3Cl)CC2)cc1` [Example 25, N-{[4-(Aminomethyl)phen-yl]methyl]-4-[(2-chlorophenyl)meth-yl]piperazine-1-carboxamide di-hydrochloride], the IC50 is 5 to 20 µM.

As for `NCc1ccc(CNC(=O)N2CCN(C(=O)c3ccccc3)CC2)cc1` [Example 26, 2,2,2-Trifluoroacetic acid; N-{[4-(aminomethyl)phenyl]methyl}-4-benzoylpiperazine-1-carboxamide], the IC50 was in the range of 20 to 50 µM.

On to `NCc1ccc(CNC(=O)N2CCN(c3ccccc3)CC2)cc1` [Example 27, N-{[4-(Aminomethyl)phen-yl]methyl}-4-phenyl piperazine-1-carboxamide dihydrochloride], for which the IC50 was 20 to 50 µM.

`NCc1ccc(CNC(=O)N2CCC(Cc3ccccc3)C2)cc1` (centres unmarked) [Example 28, N-{[4-(Aminomethyl)phen-yl]methyl}-3-benzylpyrrolidine-1-carboxamide]: the IC50 lay within 20 to 50 µM.

Turning to `NCc1ccc(CNC(=O)N2CCC(c3ccccc3)C2)cc1` (centres unmarked) [Example 29, 2,2,2-Trifluoroacetic acid; N-{[4-(aminomethyl)phenyl]methyl}-3-phenylpyrrolidine-1-carboxamide], the IC50 was 50 to 100 µM.

Turning to `CN(Cc1ccc(CN)cc1)C(=O)N1CCC(Cc2ccccc2)CC1` [Example 30, 2,2,2-Trifluoroacetic acid; N-{[4-(aminomethyl)phenyl]methyl}-4-benzyl-N-methylpiperidine-1-carboxamide], the IC50 lay in the range of 50 to 100 µM.

As for `NCc1ccc(CNC(=O)N2CCC(C(=O)N3CCCCC3)CC2)cc1` [Example 31, N-{[4-(Aminomethyl)phen-yl]methyl}-4-[(piperidin-1-yl)carbon-yl]piperidine-1-carboxamide hydrochloride], the IC50 was 50 to 100 µM.

`NCc1ccc(CNC(=O)N2CCC(C(=O)N3CCc4ccccc43)CC2)cc1` [Example 32, 2,2,2-Trifluoroacetic acid; N-{[4-(aminomethyl)phenyl]methyl}-4-[(2,3-dihydro-1H-indol-1-yl)carbonyl]piper-idine-1-carboxamide]: the IC50 was 50 to 100 µM.

For the origin of these results see patent publication US20130324556A1, “Protease Activated Receptor 2 (PAR2) Antagonists” (priority 2011, published 2013).
